Results taken from US6087358A (priority 1997, dated 2000).
≈ marks a conversion by molar mass, not a printed value. Where two headings read alike, the source gives them in different places.

Tests used:
[1] = system: Mycobacterium tuberculosis; conditions: Ashtekar et al. 1993; cited from earlier work
[2] = system: Mycobacterium bovis BCG (recombinant strain); assay: microbe, parasite or virus in culture; assay type: cell-based; conditions: Mycobacterium tuberculosis variant bovis BCG, BCG, 144 h; 6 days 37° C.; read-out: MIC, column A, 3(S) compounds
[3] = system: Mycobacterium tuberculosis H37Rv (sensitive strain); assay: MIC as determined by the BACTEC method, sensitive strain; assay type: cell-based; conditions: M. tuberculosis H37Rv (sensitive strain), read-out: MIC, column B, 3(S) compounds
[4] = system: Clostridium difficile ATCC 17857; assay: In vitro inhibition of Clostridium difficile (Oxyrase broth microdilution MIC); assay type: cell-based; conditions: Clostridioides difficile, ATCC17857; Clostridium difficile ATCC 17857, Oxyrase broth; read-out: MIC, column D, 3(S) compounds
[5] = system: Mycobacterium bovis (rBCG); assay type: in vivo; conditions: 10 days
Helicobacter felis = assay: In vivo activity against Helicobacter felis in mice (urease test of stomach biopsy); design: species or system in female CD-1 mice; conditions: 50 mg/kg three times daily oral gavage, CM-2, four days; vehicle and untreated 100
Procedure: Female CD-1 mice weighing 30 grams were infected by oral gavage with 10^8 -10^9 colony forming units of H. felis. This infection process was repeated two, and four days, thereafter. Colonization of the stomach was allowed to occur over a seven day period. Animals were segregated into groups of five, and were treated three times daily by oral gavage with 50 mg/kg of test drugs prepared in the CM-2 formulation vehicle (Example 52). Treatment continued for four days. One group of animals received an equal volume of formulation vehicle alone, to ensure that the vehicle had no effect on the Helicobacter infection. A separate untreated control group was also included.
All animals were then sacrificed, the stomachs were removed, opened, and the contents washed out. A five millimeter diameter biopsy was removed, and transferred to a urease test solution containing a pH-sensitive dye, which was then incubated at 37° C. incubator for 24 hours. A blue or purple coloration in this test solution signifies a positive reaction, indicating the continued presence of viable Helicobacter bacteria; a negative result is indicated by a yellow coloration. Viable Helicobacter bacteria produce a urease enzyme which converts urea, of which there is an abundant supply in the stomach (from saliva and gastric juices), into bicarbonate and ammonia, which are strong bases. This mechanism is considered to provide conditions more amenable to the survival of Helicobacter in the otherwise acidic conditions prevalent in the stomach.

Helicobacter pylori = assay: In vitro inhibition of Helicobacter pylori (broth microdilution MIC); conditions: Helicobacter pylori

Row | SMILES | activity against Mycobacterium tuberculosis [1] | MIC [2] | MIC [3] | MIC [4] | Average RLUs, M. bovis (rBCG) in spleens [5] | % Survival (Helicobacter felis) | MIC (Helicobacter pylori; 72 h, read-out: MIC against Helicobacter pylori, strain 17 (Table 5A)) | MIC (Helicobacter pylori; 72 h, read-out: MIC against Helicobacter pylori, strain 19 (Table 5A)) | MIC (Helicobacter pylori; 72 h, read-out: MIC against Helicobacter pylori, strain 20 (Table 5A)) | MIC (Helicobacter pylori; 72 h, read-out: MIC against Helicobacter pylori, strain 40 (Table 5A)) | MIC (Helicobacter pylori; 72 h, read-out: MIC against Helicobacter pylori, strain 43 (Table 5A)) | MIC (Helicobacter pylori; 72 h, read-out: MIC against Helicobacter pylori, strain 76 (Table 5A)) | MIC (Helicobacter pylori; ATCC43504, 72 h, read-out: MIC against Helicobacter pylori, strain ATCC 43504 (Table 5A))
1 | CCC1Cn2cc([N+](=O)[O-])nc2O1 (centres unmarked) [CGI 17341, 2-ethyl-5-nitro-2,3-dihydro[2,1-b]imidazo-oxazole] | exhibit activity against Mycobacterium tuberculosis | – | – | – | – | – | – | – | – | – | – | – | –
2 | O=[N+]([O-])c1cn2c(n1)OC[C@@H](OCc1ccc(OCc3ccccc3)cc1)C2 [PA-647] | – | 0.03 µg/mL (≈ 0.0787 µM) | 0.03 µg/mL (≈ 0.0787 µM) | 12.5 µg/mL (≈ 32.8 µM) | 19,916 RLUs | 100% | > 25 µg/mL | 0.2 µg/mL (≈ 0.524 µM) | 0.2 µg/mL (≈ 0.524 µM) | 0.4 µg/mL (≈ 1.05 µM) | 0.4 µg/mL (≈ 1.05 µM) | 3.12 µg/mL (≈ 8.18 µM) | > 25 µg/mL
3 | CC(C)(C)c1ccc(CO[C@@H]2COc3nc([N+](=O)[O-])cn3C2)cc1 [PA-653] | – | 0.06 µg/mL (≈ 0.181 µM) | 0.03 µg/mL (≈ 0.0905 µM) | 3.12 µg/mL (≈ 9.42 µM) | 229,080 RLUs | – | – | – | – | – | – | – | –
